This is an account of results in US20060247231A1, “Amide and ester matrix metalloproteinase inhibitors” (Warner-Lambert Company LLC, priority 2003, published 2006).

What all share (assay type): biochemical
The target of one assay is T1, MMP-17CD (Homo sapiens, UniProt Q9ULZ9).
T1 construct: MMP-17 catalytic domain (“MMP-17CD”)
T1 sequence (Q9ULZ9 126-295 limits assumed): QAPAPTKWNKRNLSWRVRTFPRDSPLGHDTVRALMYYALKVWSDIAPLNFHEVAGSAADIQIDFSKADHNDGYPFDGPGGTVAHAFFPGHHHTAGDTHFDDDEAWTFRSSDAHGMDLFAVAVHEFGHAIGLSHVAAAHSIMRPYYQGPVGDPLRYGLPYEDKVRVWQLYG
Briefly: MMP-17 catalytic domain inhibition (Biological Methods 1, 2, or 5). The protocol: (§1) Thiopeptolide substrates show virtually no decomposition or hydrolysis at or below neutral pH in the absence of a matrix metalloproteinase enzyme. A typical thiopeptolide substrate commonly utilized for assays is Ac-Pro-Leu-Gly-thioester-Leu-Leu-Gly-OEt. A 100 μL assay mixture will contain a suitable amount of the MMP enzyme such as an amount described in Ye Qi-Zhuang, et al., 1996, supra, 50 mM of N-2-hydroxyethylpiperazine-N′-2-ethanesulfonic acid buffer (“HEPES,” pH 7.0), 10 mM CaCl2, 100 μM thiopeptolide substrate, and 1 mM 5,5′-dithio-bis-(2-nitro-benzoic acid) (DTNB). The thiopeptolide substrate concentration may be varied, for example from 10 to 800 μM to obtain Km and Kcat values. The change in absorbance at 405 nm is monitored on a Thermo Max microplate reader (molecular Devices, Menlo Park, Calif.) at room temperature (22° C.). The calculation of the amount of hydrolysis of the thiopeptolide substrate is based on E412=13600 M^−1 cm^−1 for the DTNB-derived product 3-carboxy-4-nitrothiophenoxide. Assays are carried out with and without matrix metalloproteinase inhibitor compounds, and the amount of hydrolysis is compared for a determination of inhibitory activity of the test compounds.
(§2) Test compounds are evaluated at various concentrations in order to determine their respective IC50 values, the micromolar concentration of compound required to cause a 50% inhibition of catalytic activity of the respective enzyme.
(§3) Test compounds can be evaluated according to Biological Method 1 at various concentrations in order to determine their respective IC50 values, typically the micromolar concentration of compound required to cause a 50% inhibition of the hydrolytic activity of the respective enzyme.
(§4) Some representative compounds of Formula I have been evaluated according to Biological Method 1 for their ability to inhibit MMP-13 and other MMP enzymes, including MMP-1, MMP-2, MMP-3, MMP-7, MMP-8, MMP-9, MMP-12, MMP14, and MMP-17. Inhibitor activity versus other MMPs with the compounds may be determined using, for example, MMP-1FL, which refers to full length interstitial collagenase; MMP-2FL, which refers to full length Gelatinase A; MMP-3CD, which refers to the catalytic domain of stromelysin; MMP-7FL, which refers to full length matrilysin; MMP-9FL, which refers to full length Gelatinase B; MMP-13CD, which refers to the catalytic domain of collagenase 3; and MMP-14CD, which refers to the catalytic domain of MMP-14.
(§5) The method of Biological Method 1, except thiopeptolide substrate is replaced with a fluorigenic peptide such as Fluorigenic peptide-1.
(§6) Shown below in Table 1 are the inhibition of MMP-13 catalytic domain, expressed as IC50's, for the compounds of Compound Examples A1 to A8, B1 to B4, and C1 in the column labelled “MMP-13CD IC50 (μM)”.

Assay [1] concerns the target T2, MMP-13 catalytic domain (MMP-13CD) (Homo sapiens, UniProt P45452).
T2 construct: particularly MMP-13 catalytic domain (“MMP-13CD”)
Briefly: MMP-13 catalytic domain inhibition (Biological Methods 1, 2, or 5). The protocol: as §1, §2, §3, §4, §5
Fluorigenic peptide-1 substrate based assay for identifying compounds of Formula I as allosteric inhibitors of MMP-13:
• 50 mM HEPES buffer (pH 7.0) • 10 mM CaCl2 • 10 μM fluorigenic peptide-1 (“FP1”) substrate • 0 or 15 mM acetohydroxamic acid (AcNHOH)=1 Kd • 2% DMSO (with or without inhibitor test compound) • 0.5 nM MMP-13CD enzyme Stock Solutions: • 1) 10× assay buffer: 500 mM HEPES buffer (pH 7.0) plus 100 mM CaCl2 • 2) 10 mM FP1 substrate: (Mca)-Pro-Leu-Gly-Leu-(Dnp)-Dpa-Ala-Arg-NH2 (Bachem, M-1895; “A novel coumarin-labeled peptide for sensitive continuous assays of the matrix metalloproteinases,” Knight C. G., Willenbrock F., and Murphy, G., FEBS Lett., 1992;296:263-266). Is prepared 10 mM stock by dissolving 5 mg FP1 in 0.457 mL DMSO. • 3) 3 M AcNHOH: Is prepared by adding 4 mL H2O and 1 mL 10× assay buffer to 2.25 g AcNHOH (Aldrich 15,903-4). Adjusting pH to 7.0 with NaOH. Diluting volume to 10 mL with H2O. Final solution will contain 3 M AcNHOH, 50 mM HEPES buffer (pH 7.0), and 10 mM CaCl2. • 4) AcNHOH dilution buffer: 50 mM HEPES buffer (pH 7.0) plus 10 mM CaCl2 • 5) MMP-13CD enzyme: Stock concentration=250 nM. • 6) Enzyme dilution buffer: 50 mM HEPES buffer (pH 7.0), 10 mM CaCl2, and 0.005% BRU 35 detergent (Calbiochem 203728; Protein Grade, 10%) Procedure (For One 96-well Microplate): • A. Prepared assay mixture: […]

The target of assay [2] is T3, MMP-1FL (full length interstitial collagenase) (Homo sapiens, UniProt P03956).
T3 sequence (P03956 100-469): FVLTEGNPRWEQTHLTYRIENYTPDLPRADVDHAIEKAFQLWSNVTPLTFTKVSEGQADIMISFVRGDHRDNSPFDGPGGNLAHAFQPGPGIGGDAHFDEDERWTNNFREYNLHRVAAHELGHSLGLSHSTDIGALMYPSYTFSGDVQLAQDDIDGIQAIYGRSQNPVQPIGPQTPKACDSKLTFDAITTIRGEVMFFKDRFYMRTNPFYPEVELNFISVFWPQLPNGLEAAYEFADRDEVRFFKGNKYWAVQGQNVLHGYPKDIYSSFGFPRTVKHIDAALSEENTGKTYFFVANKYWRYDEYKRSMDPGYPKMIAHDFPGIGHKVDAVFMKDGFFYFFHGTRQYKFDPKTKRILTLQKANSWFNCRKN
Nature of the assay: MMP-1 full-length inhibition (Biological Methods 1, 2, or 5). The protocol:
(§7) Thiopeptolide substrates show virtually no decomposition or hydrolysis at or below neutral pH in the absence of a matrix metalloproteinase enzyme. A typical thiopeptolide substrate commonly utilized for assays is Ac-Pro-Leu-Gly-thioester-Leu-Leu-Gly-OEt. A 100 μL assay mixture will contain a suitable amount of the MMP enzyme such as an amount described in Ye Qi-Zhuang, et al., 1996, supra, 50 mM of N-2-hydroxyethylpiperazine-N′-2-ethanesulfonic acid buffer (“HEPES,” pH 7.0), 10 mM CaCl2, 100 μM thiopeptolide substrate, and 1 mM 5,5′-dithio-bis-(2-nitro-benzoic acid) (DTNB). The thiopeptolide substrate concentration may be varied, for example from 10 to 800 μM to obtain Km and Kcat values. The change in absorbance at 405 nm is monitored on a Thermo Max microplate reader (molecular Devices, Menlo Park, Calif.) at room temperature (22° C.). The calculation of the amount of hydrolysis of the thiopeptolide substrate is based on E412=13600 M^−1 cm^−1 for the DTNB-derived product 3-carboxy-4-nitrothiophenoxide. […]
as §4, with “MMP-14. […]” for “MMP-14.”
as §6

Assay [3] has as its target MMP-3CD (catalytic domain of stromelysin) (Homo sapiens, UniProt P08254). Briefly: MMP-3 catalytic domain inhibition (Biological Methods 1, 2, or 5). The protocol: as §1, §2
It should be appreciated that the assay buffer used with MMP-3CD was 50 mM N-morpholinoethane sulfonate (“MES”) at pH 6.0 rather than the HEPES buffer at pH 7.0 described above.
as §3, §4, §5, §6

Assay [4] concerns the target MMP-14CD (catalytic domain of MMP-14) (Homo sapiens, UniProt P50281). Nature of the assay: MMP-14 catalytic domain inhibition (Biological Methods 1, 2, or 5). As to the method: as §1, §2, §3, §4, §5, §6
For assay [5], the target named is T4, MMP-7FL (full length matrilysin) (Homo sapiens, UniProt P09237).
T4 sequence (P09237 95-267): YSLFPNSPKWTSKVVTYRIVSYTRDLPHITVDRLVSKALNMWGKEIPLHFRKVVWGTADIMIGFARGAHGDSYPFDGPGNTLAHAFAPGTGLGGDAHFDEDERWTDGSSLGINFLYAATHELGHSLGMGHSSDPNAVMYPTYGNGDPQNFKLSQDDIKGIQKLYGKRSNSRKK
Briefly: MMP-7 full-length inhibition (Biological Methods 1, 2, or 5). As to the method: as §7
as §4, with “MMP-14. […]” for “MMP-14.”
as §6

The next assay concerns the target T5, MMP-8FL (Homo sapiens, UniProt P22894).
T5 construct: MMP-8 full-length
Briefly: MMP-8 full-length inhibition (Biological Methods 1, 2, or 5). As to the method: as §1, §2, §3, §4, §5, §6

Assay [6] deals with MMP-9FL (full length Gelatinase B) (Homo sapiens, UniProt P14780). Nature of the assay: MMP-9 full-length inhibition (Biological Methods 1, 2, or 5). The protocol: as §1, §2, §3, §4, §5, §6
MMP-9FL (full length Gelatinase B), sequence (P14780 94-707): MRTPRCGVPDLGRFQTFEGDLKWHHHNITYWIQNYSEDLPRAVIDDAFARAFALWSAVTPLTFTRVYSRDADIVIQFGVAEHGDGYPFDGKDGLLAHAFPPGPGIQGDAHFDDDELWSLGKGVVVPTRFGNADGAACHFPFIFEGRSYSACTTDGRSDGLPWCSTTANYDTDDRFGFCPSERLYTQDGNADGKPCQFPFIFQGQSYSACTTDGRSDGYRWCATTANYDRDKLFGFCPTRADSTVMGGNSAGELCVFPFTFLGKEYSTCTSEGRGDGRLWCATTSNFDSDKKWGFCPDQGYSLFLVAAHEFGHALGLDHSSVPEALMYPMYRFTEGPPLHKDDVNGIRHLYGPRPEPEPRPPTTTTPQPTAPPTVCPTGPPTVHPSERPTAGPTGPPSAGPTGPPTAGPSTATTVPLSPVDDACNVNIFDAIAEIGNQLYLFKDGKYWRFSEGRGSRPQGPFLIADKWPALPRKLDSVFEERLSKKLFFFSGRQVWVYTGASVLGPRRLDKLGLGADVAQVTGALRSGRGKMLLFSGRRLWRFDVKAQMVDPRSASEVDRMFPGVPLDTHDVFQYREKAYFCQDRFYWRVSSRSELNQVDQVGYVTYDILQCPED
A further assay concerns the target T6, MMP-12CD (Homo sapiens, UniProt P39900).
T6 construct: MMP-12 catalytic domain (“MMP-12CD”)
Briefly: MMP-12 catalytic domain inhibition (Biological Methods 1, 2, or 5). The protocol: as §1, §2, §3, §4, §5, §6

pIC50: −log10 of the molar value.

The pIC50 is the negative decadic logarithm of the IC50, by convention in mol/L. Read a low pIC50 as a high IC50.

T6 sequence (P39900 106-263 limits assumed): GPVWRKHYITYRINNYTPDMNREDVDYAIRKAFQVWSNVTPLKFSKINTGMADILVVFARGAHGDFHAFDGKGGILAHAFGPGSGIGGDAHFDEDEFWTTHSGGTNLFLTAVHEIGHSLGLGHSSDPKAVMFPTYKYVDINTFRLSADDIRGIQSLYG
MMP-3CD (catalytic domain of stromelysin), sequence (P08254 100-272 limits assumed): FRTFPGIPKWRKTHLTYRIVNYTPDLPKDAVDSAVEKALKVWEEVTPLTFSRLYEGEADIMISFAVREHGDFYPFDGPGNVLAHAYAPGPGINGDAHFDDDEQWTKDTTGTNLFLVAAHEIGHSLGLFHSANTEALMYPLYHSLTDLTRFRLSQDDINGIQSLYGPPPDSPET
T5 sequence (P22894 101-467): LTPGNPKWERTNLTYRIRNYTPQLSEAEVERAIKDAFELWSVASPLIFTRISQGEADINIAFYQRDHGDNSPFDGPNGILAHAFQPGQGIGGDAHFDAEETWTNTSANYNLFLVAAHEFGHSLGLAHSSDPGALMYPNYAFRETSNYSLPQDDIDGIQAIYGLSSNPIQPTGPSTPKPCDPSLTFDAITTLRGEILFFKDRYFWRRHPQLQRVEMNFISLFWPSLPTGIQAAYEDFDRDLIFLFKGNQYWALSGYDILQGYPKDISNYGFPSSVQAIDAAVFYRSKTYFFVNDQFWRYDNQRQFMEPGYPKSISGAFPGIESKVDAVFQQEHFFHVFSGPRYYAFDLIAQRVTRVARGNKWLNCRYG

As for `COc1cccc(CC(=O)Nc2cc3c(=O)n(Cc4ccc(C(=O)O)cc4)cnc3cc2F)c1` [A2], the negative logarithm of the IC50 (pIC50) at MMP-17CD is under 4.00; in [1] it was 7.28; in assay [2] it was under 4.00; in [3], under 4.00; in assay [4] it was under 4.00; in [5], under 4.00. Besides, the negative-log IC50 (pIC50) at MMP-8FL is under 4.00.
As to `O=C(Cc1ccc(F)cc1)Nc1ccc2ncn(Cc3ccc(C(=O)O)cc3)c(=O)c2c1` [A4], the pIC50 was under 4.00 against MMP-17CD; 7.44 in [1]; under 4.00 in assay [2]; under 4.00 in assay [3]; under 4.00 in [6]; under 4.52 in [4]. For the same molecule, the pIC50 (in assay [5]; on MMP-8FL) was under 4.00 throughout.
As to `O=C(Cc1cccc(F)c1)Nc1ccc2ncn(Cc3ccc(C(=O)O)cc3)c(=O)c2c1` [A5], the pIC50 on MMP-17CD was under 4.00; in assay [1], 6.60; in assay [2] it was under 4.00; in assay [3] it was under 4.00; in assay [6], under 4.00; in assay [4], under 4.52. For the same molecule, the negative-log IC50 (pIC50) (in assay [5]; against MMP-8FL) was under 4.00 each time.
In [1], `COc1ccc(CC(=O)Nc2cc3c(=O)n(Cc4ccc(C(=O)O)cc4)cnc3cc2F)cc1` [A6] had a negative-log IC50 (pIC50) of 8.28.
With `Cc1ccc(CC(=O)Nc2cc3c(=O)n(Cc4ccc(C(=O)O)cc4)cnc3cc2F)cc1` [A7], the pIC50 in assay [1] was 7.00. Compared with the last molecule, the pIC50 is 1.28 log units lower.
In [1], `O=C(Cc1ccc(O)cc1)Nc1cc2c(=O)n(Cc3ccc(C(=O)O)cc3)cnc2cc1F` [A8] gave a negative logarithm of the IC50 (pIC50) of 7.68.
Take `COc1ccc(CC(=O)Nc2ccc3ccn(Cc4ccc(C(=O)O)cc4)c(=O)c3c2)cc1` [B2]: the pIC50 is under 4.52 against MMP-17CD; 7.89 in assay [1]; under 4.19 in [3]; under 4.52 in assay [6]; under 4.52 in [4]; under 4.52 at MMP-8FL. The pIC50 against MMP-12CD is under 4.52.
Regarding `O=C(Cc1cccc(F)c1)Nc1ccc2ccn(Cc3ccc(C(=O)O)cc3)c(=O)c2c1` [B3], the pIC50 was under 4.52 at MMP-17CD; 6.53 in assay [1]; under 4.19 in [3]; under 4.52 in [6]; under 4.52 in assay [4]; under 4.52 against MMP-8FL. Also, on MMP-12CD, the pIC50 was under 4.52.
`O=C(Cc1ccc(F)cc1)Nc1ccc2ccn(Cc3ccc(C(=O)O)cc3)c(=O)c2c1` [B4]: the negative logarithm of the IC50 (pIC50) on MMP-17CD was under 4.52; in [1], 7.32; in assay [3], under 4.19; in assay [6], under 4.52; in assay [4], under 4.52; against MMP-8FL, under 4.52. The pIC50 at MMP-12CD was under 4.52.
`COc1cccc(CC(=O)Nc2ccc3ncn(Cc4ccc(C(=O)O)cc4)c(=O)c3c2)c1` [Compound Example A1, 4-{6-[2-(3-Methoxy-phenyl)-acetylamino]-4-oxo-4H-quinazolin-3-ylmethyl}-benzoic acid]: the pIC50 is under 4.52 against MMP-17CD; 7.42 in assay [1]; under 4.19 in [3]; under 4.52 in assay [6]; under 4.52 in assay [4]; under 4.52 against MMP-8FL. Besides, at MMP-12CD, the negative logarithm of the IC50 (pIC50) is under 4.52.
Take `COc1cccc(CC(=O)Nc2ccc3ccn(Cc4ccc(C(=O)O)cc4)c(=O)c3c2)c1` [Compound Example B1, 4-{7-[2-(3-Methoxy-phenyl)-acetylamino]-1-oxo-1H-isoquinolin-2-ylmethyl}-benzoic acid]: the negative logarithm of the IC50 (pIC50) was under 4.52 on MMP-17CD; 7.28 in assay [1]; under 4.19 in assay [3]; under 4.52 in assay [6]; under 4.52 in [4]; under 4.52 on MMP-8FL. The same molecule gave a pIC50 at MMP-12CD of under 4.52.
